Some test systems named below: ACHN renal; SNB-19 CNS; OVCAR-3 ovarian; MOLT-4 leukemia; NCI-H23 lung; UACC-62 melanoma; UACC-257 melanoma; SNB-75 CNS; OVCAR-4 ovarian.
Holding throughout (test): growth of human tumour cells (NCI), 48 h

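In this assay, cells in 96-well plates receive the compound at five concentrations for 48 hours. Endpoints are linearly interpolated between the surrounding concentrations. GI50: concentration for 50% inhibition of growth. Definition used: TGI = concentration required for complete inhibition of growth.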

As to `CC(=O)NNc1nc(C)c(C(=O)/C=C/c2ccc(Cl)cc2)s1`, the TGI in the assay on ACHN renal, with SNB-19 CNS, with OVCAR-3 ovarian, in the assay with MOLT-4 leukemia, in the assay on NCI-H23 lung and with UACC-62 melanoma was greater than 100 µM throughout. In addition, the TGI in the assay with UACC-257 melanoma and in the assay on SNB-75 CNS was greater than 100 µM in each case.

As for `C[C@]12CC[C@H]3[C@@H](CC4SC(N)=NC45C/C(=N/NC(N)=O)CC[C@]35C)[C@@H]1CCC2=O` (some centres not stated), the GI50 is 1.74 µM in the assay on OVCAR-4 ovarian; 1.8 µM in the assay on ACHN renal; 1.87 µM with SNB-19 CNS; 1.87 µM with OVCAR-3 ovarian; 2.64 µM in the assay on MOLT-4 leukemia; 1.78 µM in the assay on NCI-H23 lung. The GI50 in the assay with UACC-62 melanoma was 1.63 µM; in the assay with UACC-257 melanoma, 2.4 µM; with SNB-75 CNS, 1.58 µM. In addition, the TGI in the assay with OVCAR-4 ovarian is 3.17 µM; with ACHN renal, 3.19 µM; in the assay on SNB-19 CNS it was 3.62 µM; in the assay on OVCAR-3 ovarian, 3.44 µM; in the assay with MOLT-4 leukemia, 7.02 µM; in the assay on NCI-H23 lung, 3.32 µM. The TGI was determined as 3.13 µM in the assay with UACC-62 melanoma, 5.83 µM in the assay on UACC-257 melanoma and 3.5 µM with SNB-75 CNS.

With `ClCc1ccccc1Cn1cnc2c(Cl)ncnc21`, the GI50 with OVCAR-4 ovarian is 3.39 µM; with ACHN renal, 2.7 µM; with SNB-19 CNS, 5.38 µM; with OVCAR-3 ovarian it was 1.4 µM; in the assay with MOLT-4 leukemia it was 1.6 µM; in the assay with NCI-H23 lung, 2.02 µM. For the same compound, the GI50 in the assay on UACC-62 melanoma is 3.28 µM; in the assay with UACC-257 melanoma it was 10.7 µM; in the assay with SNB-75 CNS, 2.86 µM. The TGI in the assay on OVCAR-4 ovarian is 12.2 µM; in the assay with ACHN renal it was 6.1 µM; in the assay with SNB-19 CNS it was greater than 100 µM; in the assay with OVCAR-3 ovarian, 3.53 µM; with MOLT-4 leukemia, 5.28 µM; with NCI-H23 lung, 4.34 µM. In addition, the TGI in the assay on UACC-62 melanoma is 6.66 µM; in the assay with UACC-257 melanoma it was 26.6 µM; with SNB-75 CNS it was 11.1 µM.

`COc1cc2c(cc1OC)C1Cc3ccc(OC)c(OC)c3C[N+]1([O-])CC2` (configuration not stated): the TGI in the assay on OVCAR-4 ovarian, in the assay on ACHN renal, in the assay on SNB-19 CNS, in the assay with OVCAR-3 ovarian, with MOLT-4 leukemia and with NCI-H23 lung was greater than 100 µM in each case. Besides, the TGI in the assay with UACC-257 melanoma and in the assay with SNB-75 CNS was greater than 100 µM in each case.

Take `O=S(=O)(N=NC=C1c2ccccc2N(O)c2ccccc21)c1ccc(Cl)cc1`: the TGI with OVCAR-4 ovarian, in the assay on ACHN renal, with SNB-19 CNS, with OVCAR-3 ovarian, with MOLT-4 leukemia and in the assay on NCI-H23 lung was greater than 100 µM each time. The TGI in the assay with UACC-62 melanoma is greater than 100 µM; in the assay with UACC-257 melanoma it was greater than 100 µM; with SNB-75 CNS, 78.2 µM.

Consider `CN(C)CCCC1(c2ccc(F)cc2)OCc2cc(-c3cc4ccccc4s3)ccc21` (configuration not stated), for which the GI50 is 1.94 µM with OVCAR-4 ovarian; 1.66 µM with ACHN renal; 1.72 µM with SNB-19 CNS; 1.67 µM with OVCAR-3 ovarian; 1.52 µM in the assay with MOLT-4 leukemia; 1.76 µM with NCI-H23 lung. The GI50 was 1.79 µM in the assay with UACC-62 melanoma, 1.8 µM with UACC-257 melanoma and 1.24 µM with SNB-75 CNS. Further, the TGI with OVCAR-4 ovarian stood at 3.52 µM; in the assay on ACHN renal, 3.02 µM; with SNB-19 CNS, 3.13 µM; in the assay on OVCAR-3 ovarian it was 3.19 µM; in the assay with MOLT-4 leukemia it was 3.08 µM; with NCI-H23 lung, 3.34 µM. The values for the TGI in the assay on UACC-62 melanoma, in the assay on UACC-257 melanoma and in the assay on SNB-75 CNS were 3.24 µM, 3.27 µM and 2.58 µM, respectively.

Turning to `Cc1nc(/C=C2\C(=O)C=Cc3ccccc32)c(O)o1`, the TGI with OVCAR-4 ovarian, in the assay with ACHN renal, with SNB-19 CNS, with MOLT-4 leukemia, in the assay with NCI-H23 lung and in the assay with UACC-62 melanoma was greater than 100 µM in each case. Also, the TGI in the assay with UACC-257 melanoma is greater than 100 µM; with SNB-75 CNS, 40.4 µM.

As for `C=C1C(=O)O[C@H]2[C@H]1CC/C(COC(=O)OC/C1=C/CC[C@@]3(C)O[C@H]3[C@H]3OC(=O)[C@@H](CN(C)C)[C@@H]3CC1)=C\CC[C@@]1(C)O[C@@H]21`, the GI50 with OVCAR-4 ovarian is 1.42 µM; with ACHN renal, 0.457 µM; with SNB-19 CNS it was 4.67 µM; with OVCAR-3 ovarian, 0.501 µM; in the assay on MOLT-4 leukemia it was 0.874 µM; with NCI-H23 lung, 2.86 µM. Also, the GI50 was 1.85 µM in the assay on UACC-62 melanoma, 1.63 µM in the assay on UACC-257 melanoma and 4.89 µM with SNB-75 CNS. The TGI in the assay on OVCAR-4 ovarian amounted to 3.1 µM; with ACHN renal, 1.69 µM; with SNB-19 CNS, 18.3 µM; in the assay on OVCAR-3 ovarian it was 1.7 µM; with MOLT-4 leukemia, 3.75 µM; with NCI-H23 lung, 10.2 µM. The TGI in the assay on UACC-62 melanoma was 5.13 µM; with UACC-257 melanoma it was 4.11 µM; in the assay on SNB-75 CNS, 25.1 µM.

On to `CC(C(=O)c1ccccc1)C1(O)C(=O)Nc2ccc(Cl)cc21` (configuration not stated), for which the TGI with OVCAR-4 ovarian was 77.8 µM; with ACHN renal, greater than 100 µM; with SNB-19 CNS, greater than 100 µM; with OVCAR-3 ovarian, greater than 100 µM; in the assay on NCI-H23 lung it was greater than 100 µM; with UACC-62 melanoma, greater than 100 µM. The TGI in the assay with UACC-257 melanoma and in the assay on SNB-75 CNS was greater than 100 µM each time.

With `COc1cc(OC)c(OC)cc1/C=C/c1cnnc2ccccc12`, the TGI in the assay with OVCAR-4 ovarian, with ACHN renal, in the assay on SNB-19 CNS, with OVCAR-3 ovarian, with MOLT-4 leukemia and in the assay on NCI-H23 lung was greater than 10 µM throughout. In addition, the TGI in the assay with UACC-62 melanoma, in the assay on UACC-257 melanoma and in the assay on SNB-75 CNS was greater than 10 µM in each case.

`C/C(CC(=O)Nc1ccccc1C)=N/NS(=O)(=O)c1ccc(C)cc1`: the TGI in the assay with ACHN renal, with OVCAR-3 ovarian, in the assay on MOLT-4 leukemia, with NCI-H23 lung, with UACC-62 melanoma and in the assay on UACC-257 melanoma was greater than 100 µM in each case. Further, in the assay on SNB-75 CNS, the TGI was greater than 100 µM.

As to `CCCCCCCCCCCCCCCCCCNC(=S)/N=C/c1c(O)c2ccccc2[nH]c1=O`, the TGI was found to be 41 µM with OVCAR-4 ovarian; 30.9 µM in the assay on ACHN renal; 36.3 µM in the assay on SNB-19 CNS; 37.8 µM in the assay with OVCAR-3 ovarian; 29.7 µM in the assay with MOLT-4 leukemia; 37.5 µM in the assay on NCI-H23 lung. In addition, the results for the TGI in the assay with UACC-257 melanoma and with SNB-75 CNS were 37.1 µM and 28 µM, respectively.

Take `COc1ccc2oc(-c3ccc(OC)c(OC)c3OC)cc(=O)c2c1`: the TGI in the assay on OVCAR-4 ovarian, in the assay with ACHN renal, with SNB-19 CNS, with OVCAR-3 ovarian, in the assay with NCI-H23 lung and in the assay with UACC-62 melanoma was greater than 100 µM in each case. Also, the TGI in the assay with UACC-257 melanoma and with SNB-75 CNS was greater than 100 µM each time.

Take `N#CC(C#N)=Cc1ccc(CP(=O)(O)O)cc1`: the TGI in the assay on OVCAR-4 ovarian, with ACHN renal, in the assay with SNB-19 CNS, with OVCAR-3 ovarian, in the assay with MOLT-4 leukemia and with NCI-H23 lung was greater than 100 µM in each case. Also, the TGI with UACC-62 melanoma and in the assay on UACC-257 melanoma was greater than 100 µM throughout.

Consider `COc1cc(C(=O)O[C@H](C(=O)NCCN(C)CCNC(=O)[C@@H](OC(=O)c2cc(OC)cc3c(C)cccc23)[C@]2(C)CO2)[C@]2(C)CO2)c2cccc(C)c2c1`, for which the GI50 in the assay on OVCAR-4 ovarian is 0.056 µM; in the assay with SNB-19 CNS, 0.265 µM; in the assay with MOLT-4 leukemia it was less than 0.01 µM; in the assay on NCI-H23 lung, less than 0.01 µM; with UACC-62 melanoma, 0.154 µM; in the assay on UACC-257 melanoma, 0.416 µM. The GI50 in the assay with SNB-75 CNS was 0.111 µM. In addition, the TGI in the assay with OVCAR-4 ovarian worked out at 0.679 µM; in the assay with SNB-19 CNS it was 1.18 µM; in the assay on MOLT-4 leukemia it was 0.153 µM; with NCI-H23 lung, 0.0137 µM; in the assay with UACC-62 melanoma, 0.338 µM; in the assay with UACC-257 melanoma, 2.38 µM. In addition, in the assay on SNB-75 CNS, the TGI is 1.02 µM.

As for `COC1=CC(c2ccc[nH]2)=N/C1=C\c1[nH]c(C)c(CC(=O)OCc2ccccc2)c1C`, the GI50 in the assay on OVCAR-4 ovarian is 0.256 µM; with ACHN renal it was 0.296 µM; with SNB-19 CNS, 0.671 µM; in the assay with OVCAR-3 ovarian, 0.31 µM; with MOLT-4 leukemia it was 0.23 µM; in the assay on NCI-H23 lung it was 0.399 µM. Moreover, the figures for the GI50 in the assay on UACC-257 melanoma and in the assay on SNB-75 CNS were 0.605 µM and 0.217 µM, respectively. The TGI was found to be 5.17 µM in the assay on OVCAR-4 ovarian; 0.886 µM with ACHN renal; 12.4 µM in the assay on SNB-19 CNS; 1.41 µM in the assay on OVCAR-3 ovarian; 1.27 µM in the assay on MOLT-4 leukemia; 2.98 µM with NCI-H23 lung. The TGI worked out at 2.24 µM with UACC-257 melanoma and 0.777 µM in the assay with SNB-75 CNS.

For `O=C1C=Cc2c1ccc1ccccc21`, the GI50 was 75.2 µM in the assay on OVCAR-4 ovarian; 17.1 µM with ACHN renal; 33 µM in the assay on SNB-19 CNS; 27.4 µM in the assay with NCI-H23 lung; 9.66 µM with UACC-62 melanoma; 50.2 µM with UACC-257 melanoma. Also, the GI50 with SNB-75 CNS was 35.4 µM. In addition, the TGI in the assay with OVCAR-4 ovarian is greater than 100 µM; with ACHN renal it was 58.7 µM; in the assay on SNB-19 CNS, greater than 100 µM; in the assay with NCI-H23 lung it was 85.2 µM; in the assay with UACC-62 melanoma, 70.9 µM; in the assay with UACC-257 melanoma, greater than 100 µM. The same compound registered a TGI with SNB-75 CNS greater than 100 µM.

The values above are taken from PubChem BioAssay (NCI).
